Reference: patent US5707990A, “2-substituted amino and thio alkyl benzoxazine antimicrobial agents” (Ortho Pharmaceutical Corporation, priority 1996, dated 1998)

What follows are compounds tested against T1, Kinase A and SpoOF (Bacillus subtilis, UniProt P16497) (assay: Autophosphorylation of Kinase A and Transphosphorylation of SpoOF Assay (HPK in vitro assay)). Settings: [32P]ATP, gel/phosphoimager, inhibitor concentrations from 1 to 500 μM, IC50 of less than 1000 μM considered active.
T1 construct: made in house; host or cells: recombinant E. coli
T1 sequence (P16497 1-606): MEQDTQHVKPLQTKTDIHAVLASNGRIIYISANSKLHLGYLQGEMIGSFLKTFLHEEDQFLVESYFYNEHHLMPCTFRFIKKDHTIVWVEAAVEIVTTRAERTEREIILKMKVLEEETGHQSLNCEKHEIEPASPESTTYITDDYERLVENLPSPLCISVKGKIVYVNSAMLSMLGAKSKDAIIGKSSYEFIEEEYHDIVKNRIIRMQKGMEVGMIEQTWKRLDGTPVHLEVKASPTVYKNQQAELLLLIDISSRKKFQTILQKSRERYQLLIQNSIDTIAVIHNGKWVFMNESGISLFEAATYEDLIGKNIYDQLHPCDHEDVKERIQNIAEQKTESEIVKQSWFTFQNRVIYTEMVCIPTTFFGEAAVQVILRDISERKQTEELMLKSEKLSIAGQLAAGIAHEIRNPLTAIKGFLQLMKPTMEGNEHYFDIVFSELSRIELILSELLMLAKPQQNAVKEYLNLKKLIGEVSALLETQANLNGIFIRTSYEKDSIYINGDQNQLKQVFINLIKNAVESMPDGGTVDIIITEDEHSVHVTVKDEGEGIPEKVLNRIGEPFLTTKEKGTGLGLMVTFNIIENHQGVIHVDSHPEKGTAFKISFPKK
Format: biochemical
Method: Autophosphorylation of Kinase A and Transphosphorylation of SpoOF Assay
To study the effect of the compounds of the present invention on the signal transduction process in bacteria, the inhibiting effect of the compounds on the sporulation operon proteins Kinase A and SpoOF was examined. Specifically, the inhibition of autophosphorylation of Kinase A and the transphosphorylation of SpoOF was determined in the following assays. The SpoOF response regulator is the primary substrate for phosphorylation by the protein kinase, Kin A, involved in the sporulation process in bacteria. See D. Burbulys, K. A. Trach, J. A. Hoch, Cell, 64, 545-552 (1991 ). SpoOF and KinA were prepared from recombinant E. coli overexpressing the proteins (J. Cavanagh et al, Amino Adds, 6, 131-140 (1994) and references therein).
The following stock reagents were either prepared and used promptly or stored at the indicated temperature:
8 X Salts: 2M KCl (5 mL), 1M MgCl2 ([…]), 1M CaCl2 ([…]), 10 mg/mL phenylmethylsulfonyl fluoride ([…]), 1M dithioreitol (50 mL), 0.25M Na2 EDTA (32 mL) and H2 O 3.82 mL (-20° C.)
5X Loading Dye: 0.5M TRIS-HCl-pH 6.8 (7.5 mL), 10% SDS (2 mL) 0.1% bromophenol blue (0.5 mL), 100% glycerol (3 mL) and 12.5M 2-mercaptoethanol (0.3 mL)
1-1.3 mg/mL KinA: 15 mM TRIS-HCl, pH 8.0, 6 mM KCl; 4 mM 2-mercaptoethanol;40% glycerol (-20° C.)
1 mg/mL SpoOF: 17.5 mM TRIS-HCl, pH 8.0; 0.7 mM KCl; 0.7 mM MgCl2; 0.7 mM CaCl2; 5 mM 2-mercaptoethanol; 30% Glycerol (-20° C.)
5% Stacking Gel: 40% 29:1 acrylamide:bis acrylamide (1.25 mL), 0.5M TRIS-HCl, pH 6.8 (2.5 mL), 10% SDS (0.1 mL), D-H2 O (6.15 mL) 10% ammonium persulfate (100 mL) and TEMED (25 mL)
SDS Running Buffer: TRIS-BASE (3.02 g), glycine (14.4 g) SDS (1 g), D-H2 O (to 1 L)
The reaction mixture was prepared from 8X Salts (87 μL), 1M TRIS, pH 8 (118 μL), 50% glycerol (63 μL), SpoOF (14.1 μL) and KinA (7.0 μL). Microcentrifuge tubes were charged with the reaction mixture (18.5 μL) and a 1.0 mM solution of the test compound in 5% DMSO (18.5 μL), and incubated for 15 min on ice. 100 mM ATP solution (3.0 μl, containing 625 μCi [^32 P]ATP) was added, and the mixture left for 10 minutes at room temperature. The reaction was quenched with 5X loading dye (10 μL per tube) and the samples were loaded on a prepared 5% Stacking Gel, or stored on dry ice until ready for use. The prepared wells were filled with SDS Running Buffer, samples were loaded into the wells, and 80 volts were applied to the gel until the dye front reached the bottom of the stacking gel. The voltage was then increased to 250 volts until electrophoresis was complete. Radioactive bands in the gel corresponding to phosphorylated KinA and SpoOF were imaged and quantitated with a phosphoimager.
If either enzyme was inhibited (as evidenced by the absence of labelled protein in the developed gel), an IC50 was calculated by running the assay with a range of inhibitor concentrations from 1 to 500 μM. After electrophoresis of the reaction mixtures, percent inhibition was determined by measuring the concentration of radioactive phosphorus with a phosphoimager and calculating the values using a software program (BioRad Molecular Analyst). IC50 values of less than 1000 μM are considered active.

In order of rising “IC50” value:
1. Cc1ccc2c(c1)N(Cc1cccc(Cl)c1)C(=O)C(CCNC(=N)N)O2 (stereo not drawn) [Example 19]  52 µM
2. N=C(N)NCCC1Oc2ccc(C(F)(F)F)cc2N(Cc2cccc(Cl)c2)C1=O (stereo not drawn) [Example 18]  80 µM
3. N=C(N)NCCC1Oc2cc([N+](=O)[O-])ccc2N(Cc2cccc(Cl)c2)C1=O (stereo not drawn) [Example 23]  182 µM
4. O=C1C(CCSC(=S)N2CCCC2)Oc2ccccc2N1Cc1ccccc1Cl (stereo not drawn) [Example 25]  274 µM
5. N=C(N)NCCC1Oc2ccccc2N(Cc2ccccc2Cl)C1=O (stereo not drawn) [Example 22]  325 µM
6. N=C(N)NCCC1Oc2cccnc2N(Cc2cccc(Cl)c2)C1=O (stereo not drawn) [Example 20]  344 µM
